# Test results taken from patent US7612087B2, “Heterocyclic compounds as inhibitors of beta-lactamases” (Novexel, priority 2002, dated 2009).
# Where two headings read alike, the source gives them in different places.
# How the values were obtained:
# E. coli 250CF1 (Tem3) = assay: microbe, parasite or virus in culture; format: cell-based; settings: compound at 5 mg/l, 24 hours at 37° C.; for MIC of Cefotaxime in combination with the compound: Trial 4, 250CF1 E. coli Tem3; for MIC of Piperacillin in combination with the compound: Trial 4, 250CF1 Tem3
# Protocol: (§1) The operation is carried out as follows, using the so-called micro-dilution in liquid medium method.
# (§2) A series of concentrations of the β-lactamine is prepared in the presence of a constant concentration (5 mg/l) of the product to be studied, each is then seeded with various bacterial strains.
# (§3) After incubation for 24 hours in a heating chamber at 37° C., the growth inhibition is evaluated by the absence of any bacterial development, which allows the minimal inhibitory concentrations (MIC) for each strain to be determined, expressed in milligrams/l.
# Serratia 301HT6 = assay: MIC, micro-dilution in liquid medium, β-lactamine with product at 5 mg/l; format: cell-based; settings: compound at 5 mg/l; Trial 10, 301HT6 Serratia; 24 hours at 37° C.
# Protocol: as §1, §2, §3
# [1] = tested on: E. cloacae 293HT6 (Class C); assay: as above; format: cell-based; settings: compound at 5 mg/l, 24 hours at 37° C.; for MIC of Piperacillin in combination with the compound: Trial 9, 293HT6 Class; for MIC of Cefotaxime in combination with the compound: Trial 9, 293HT6 E. cloacae Class C
# Protocol: as §1, §2, §3
# E. coli 250HT26 (SHV1) = assay: as above; format: cell-based; settings: compound at 5 mg/l, 24 hours at 37° C.; for MIC of Cefotaxime in combination with the compound: Trial 6, 250HT26 E. coli SHV1; for MIC of Piperacillin in combination with the compound: Trial 6, 250HT26 SHV1
# Protocol: as §1, §2, §3
# E. coli 250HT22 (Tem2) = assay: as above; format: cell-based; settings: compound at 5 mg/l, 24 hours at 37° C.; for MIC of Cefotaxime in combination with the compound: Trial 3, 250HT22 E. coli Tem2; for MIC of Piperacillin in combination with the compound: Trial 3, 250HT22 Tem2
# Protocol: as §1, §2, §3
# E. coli 250BE1 (SHV4) = assay: as above; format: cell-based; settings: compound at 5 mg/l, 24 hours at 37° C.; for MIC of Cefotaxime in combination with the compound: Trial 7, 250BE1 E. coli SHV4; for MIC of Piperacillin in combination with the compound: Trial 7, 250BE1 SHV4
# Protocol: as §1, §2, §3
# [2] = tested on: P. aeruginosa 391HT8 (PSE); assay: as above; format: cell-based; settings: compound at 5 mg/l, 24 hours at 37° C.; for MIC of Cefotaxime in combination with the compound: Trial 12, 391HT8 P. aeruginosa PSE; for MIC of Piperacillin in combination with the compound: Trial 12, 391HT8 PSE
# Protocol: as §1, §2, §3
# [3] = tested on: P. aeruginosa 391HT7 (PSE); assay: as above; format: cell-based; settings: compound at 5 mg/l, 24 hours at 37° C.; for MIC of Cefotaxime in combination with the compound: Trial 11, 391HT7 P. aeruginosa PSE; for MIC of Piperacillin in combination with the compound: Trial 11, 391HT7 PSE
# Protocol: as §1, §2, §3
# [4] = tested on: E. coli 250HT23 (Class D); assay: as above; format: cell-based; settings: compound at 5 mg/l, 24 hours at 37° C.; for MIC of Piperacillin in combination with the compound: Trial 8, 250HT23 Class D; for MIC of Cefotaxime in combination with the compound: Trial 8, 250HT23 E. coli Class D
# Protocol: as §1, §2, §3
# E. coli 250HT21 (Tem1) = assay: as above; format: cell-based; settings: compound at 5 mg/l, 24 hours at 37° C.; for MIC of Cefotaxime in combination with the compound: Trial 2, 250HT21 E. coli Tem1; for MIC of Piperacillin in combination with the compound: Trial 2, 250HT21 Tem1
# Protocol: as §1, §2, §3
# [5] = tested on: S. aureus 011GO66 (PeniR); assay: as above; format: cell-based; settings: compound at 5 mg/l, 24 hours at 37° C.; for MIC of Cefotaxime in combination with the compound: Trial 1, 011GO66 S. aureus PeniR; for MIC of Piperacillin in combination with the compound: Trial 1, 011GO66 peniR
# Protocol: as §1, §2, §3
# E. coli 250SJ1 (Tem7) = assay: as above; format: cell-based; settings: compound at 5 mg/l, 24 hours at 37° C.; for MIC of Cefotaxime in combination with the compound: Trial 5, 250SJ1 E. coli Tem7; for MIC of Piperacillin in combination with the compound: Trial 5, 250SJ1 Tem7
# Protocol: as §1, §2, §3
# β-lactamase P99 = target: T1, β-lactamase P99 (Enterobacter cloacae, UniProt P05364); assay: biochemical
# T1 construct: The β-lactamases are isolated from bacterial strains which are resistant to penicillins and cephalosporins; endogenous in cells; host or cells: Enterobacter cloacae 293HT6 (natural producer; French-press lysate, 100,000 g supernatant)
# Protocol: (§4) A. Preparation of the β-lactamases Tem-1 and P99
# (§5) The β-lactamases are isolated from bacterial strains which are resistant to penicillins and cephalosporins (Tem1 and P99 are produced by E.coli 250HT21 and E.Cloacae 293HT6 respectively).
# (§6) The bacteria are cultured at 37° C. in heart-brain culture at 37 g/l (DIFCO). They are harvested at the end of the exponential phase, cooled down and centrifuged. The bacterial pellets are taken up in sodium phosphate buffer 50 mM, pH 7.0 and centrifuged again. The bacteria are taken up in two volumes of the same buffer and lyzed using a French-Press maintained at 4° C. After centrifugation for 1 hour at 100,000 g, at 4° C., the supernatants containing the soluble fraction of the bacterial extracts are recovered and frozen at −80° C.
# (§7) The method uses Nitrocefin (OXOID), cephalosporin chromogene as substrate, of which the product hydrolyzed by the B-lactamases is red and absorbs at 485 nm. Beta-lactamase activity is determined kinetically by measurement of the absorbance variation at 485 nm resulting from the hydrolysis of the substrate using a plate spectrophotometer (Spectra Max More Molecular Devices). The experiments are carried out at 37° C. The quantity of enzyme was normalized and the measurements are carried out at initial speed.
# (§8) Two measurements were carried out, without preincubation and with preincubation of the enzyme and inhibitor (5 mn), in order to test the irreversibility of the reaction. The products are tested at 6 or 8 concentrations in duplicate. The reaction mixture contains 100 μM of Nitrocefin and 50 mM sodium phosphate buffer pH7.0.
# (§9) The hydrolysis speeds are measured with and without inhibitor. The concentration of inhibitor which inhibits by 50% the hydrolysis reaction of Nitrocefin by the enzyme (CI50) is determined. The data is processed using GraFit software (Erathycus Software).
# β-lactamase TEM1 = target: T2, β-lactamase TEM1 (Escherichia coli, UniProt P62593); assay: Inhibition of isolated β-lactamase Tem-1 (Nitrocefin hydrolysis); format: biochemical, E.coli 250HT21; settings: 100 μM Nitrocefin, 50 mM sodium phosphate buffer pH7.0, 37° C.
# T2 construct: The β-lactamases are isolated from bacterial strains which are resistant to penicillins and cephalosporins; endogenous in cells; host or cells: E. coli 250HT21 (natural producer; French-press lysate, 100,000 g supernatant)
# Protocol: as §4, §5, §6, §7, §8, §9
# [6] = 100 μM Nitrocefin, 50 mM sodium phosphate buffer pH7.0, 37° C., read-out: IC50 nM/P99
# T1 sequence (P05364 21-381): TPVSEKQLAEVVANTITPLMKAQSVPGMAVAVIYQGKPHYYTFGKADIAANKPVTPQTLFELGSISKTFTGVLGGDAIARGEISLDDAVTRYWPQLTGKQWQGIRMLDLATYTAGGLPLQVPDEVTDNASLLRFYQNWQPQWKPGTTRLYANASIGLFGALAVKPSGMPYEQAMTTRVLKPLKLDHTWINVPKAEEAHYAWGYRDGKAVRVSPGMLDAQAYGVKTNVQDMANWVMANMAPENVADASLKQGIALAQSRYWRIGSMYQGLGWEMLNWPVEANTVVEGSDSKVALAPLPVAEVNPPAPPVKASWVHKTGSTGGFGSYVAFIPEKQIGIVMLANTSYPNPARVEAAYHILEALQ
# T2 sequence (P62593 24-286 limits assumed): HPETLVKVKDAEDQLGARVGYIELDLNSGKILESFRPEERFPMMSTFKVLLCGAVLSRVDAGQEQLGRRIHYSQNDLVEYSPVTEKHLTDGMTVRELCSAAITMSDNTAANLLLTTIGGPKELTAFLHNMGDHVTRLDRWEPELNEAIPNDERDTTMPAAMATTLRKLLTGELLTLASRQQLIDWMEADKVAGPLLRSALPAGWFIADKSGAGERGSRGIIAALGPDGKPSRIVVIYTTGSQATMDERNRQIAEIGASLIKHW
Structure (SMILES),MIC of Cefotaxime in combination with the compound (E. coli 250CF1 (Tem3)),MIC of Piperacillin in combination with the compound (E. coli 250CF1 (Tem3)) [µg/mL],MIC of Cefotaxime in combination with the compound (Serratia 301HT6),MIC of Piperacillin in combination with the compound (Serratia 301HT6) [µg/mL],MIC of Piperacillin in combination with the compound [1] [µg/mL],MIC of Cefotaxime in combination with the compound [1],MIC of Cefotaxime in combination with the compound (E. coli 250HT26 (SHV1)),MIC of Piperacillin in combination with the compound (E. coli 250HT26 (SHV1)) [µg/mL],MIC of Cefotaxime in combination with the compound (E. coli 250HT22 (Tem2)),MIC of Piperacillin in combination with the compound (E. coli 250HT22 (Tem2)) [µg/mL],MIC of Cefotaxime in combination with the compound (E. coli 250BE1 (SHV4)),MIC of Piperacillin in combination with the compound (E. coli 250BE1 (SHV4)) [µg/mL],MIC of Cefotaxime in combination with the compound [2] [µg/mL],MIC of Piperacillin in combination with the compound [2] [µg/mL],MIC of Cefotaxime in combination with the compound [3] [µg/mL],MIC of Piperacillin in combination with the compound [3] [µg/mL],MIC of Piperacillin in combination with the compound [4] [µg/mL],MIC of Cefotaxime in combination with the compound [4],MIC of Cefotaxime in combination with the compound (E. coli 250HT21 (Tem1)),MIC of Piperacillin in combination with the compound (E. coli 250HT21 (Tem1)) [µg/mL],also measured
"NC(=O)[C@@H]1CC[C@@H]2CN1C(=O)N2OS(=O)(=O)O (relative stereo) [Example 33, trans-7-oxo-6-(sulphooxy)-1,6-diazabicyclo[3.2.1]octane-2-carboxamide]",<=0.04 μg/ml,1.2,0.08 µg/mL,0.6,0.6,<=0.04 μg/ml,<=0.04 μg/ml,1.2,<=0.04 μg/ml,0.6,<=0.04 μg/ml,1.2,20,10,20,>40,2.5,<=0.04 μg/ml,<=0.04 μg/ml,0.3,MIC of Cefotaxime in combination with the compound [5]: 2.5 µg/mL; MIC of Piperacillin in combination with the compound [5]: 1.2 µg/mL; MIC of Cefotaxime in combination with the compound (E. coli 250SJ1 (Tem7)): <=0.04 μg/ml; MIC of Piperacillin in combination with the compound (E. coli 250SJ1 (Tem7)): 0.6 µg/mL; IC50 (β-lactamase P99): 330 nM
"O=C(NCc1ccccc1)[C@H]1CC[C@@H]2CN1C(=O)N2OS(=O)(=O)[O-].[Na+] (relative stereo) [Example 34, sodium salt of trans-7-oxo-N-(phenylmethyl)-6-(sulphooxy)-1,6-diazabicyclo[3.2.1]octane-2-carboxamide]",0.15 µg/mL,>40,<=0.04 μg/ml,1.2,10,0.6 µg/mL,<=0.04 μg/ml,20,<=0.04 μg/ml,>40,0.08 µg/mL,>40,20,>40,20,>40,40,<=0.04 μg/ml,<=0.04 μg/ml,5,MIC of Cefotaxime in combination with the compound [5]: 1.2 µg/mL; MIC of Piperacillin in combination with the compound [5]: 0.6 µg/mL; MIC of Cefotaxime in combination with the compound (E. coli 250SJ1 (Tem7)): <=0.04 μg/ml; MIC of Piperacillin in combination with the compound (E. coli 250SJ1 (Tem7)): >40 µg/mL; IC50 (β-lactamase P99; [6]): 32 nM; IC50 (β-lactamase TEM1): 27 nM
"O=C(NCc1ccccn1)[C@H]1CC[C@@H]2CN1C(=O)N2OS(=O)(=O)[O-].[Na+] (relative stereo) [Example 35, sodium salt of trans-7-oxo-N-(2-pyridinylmethyl)-6-(sulphooxy)-1,6-diazabicyclo[3.2.1]octane-2-carboxamide]",0.15 µg/mL,10,<=0.04 μg/ml,1.2,5,0.6 µg/mL,<=0.04 μg/ml,5,<=0.04 μg/ml,20,0.08 µg/mL,20,20,>40,20,>40,10,<=0.04 μg/ml,<=0.04 μg/ml,2.5,MIC of Cefotaxime in combination with the compound [5]: 1.2 µg/mL; MIC of Piperacillin in combination with the compound [5]: 1.2 µg/mL; MIC of Cefotaxime in combination with the compound (E. coli 250SJ1 (Tem7)): <=0.04 μg/ml; MIC of Piperacillin in combination with the compound (E. coli 250SJ1 (Tem7)): 5 µg/mL; IC50 (β-lactamase P99; [6]): 56 nM; IC50 (β-lactamase TEM1): 53 nM
